From US20160317531A1, “RIBONUCLEOTIDE REDUCTASE INHIBITORS SENSITIZE TUMOR CELLS TO DNA DAMAGING AGENTS” (THE GENERAL HOSPITAL CORPORATION, priority 2013, published 2016)

Legend:
Notch signalling = assay: RBP-Jk-Fluc reporter assay in 293T cells; format: cell-based
Protocol: 293T cells were infected with lenti-RBP-Jk-Fluc vector and treated with 50 μM HU or γ-secretase inhibitor DAPT for […]. Cell lysates was imaged and analyzed for Fluc activity with the Xenogen IVIS 200 Imaging System. **p<0.01 vs. DMSO (n=8 for DMSO, n=5 for HU or DAPT treatment).
(§1) Since HU is known to target ribonucleotide reductase subunit 2 (RNR), knockdown experiment was first performed in different cell lines using shRNA against RNR (shRNR) or scrambled control (ShScram) and different concentrations of TMZ. […] Other ribonucleotide reductase (RNR) inhibitors were further evaluated to determine if a similar effect as HU is obtained on GBM. GBM cells from recurrent tumors expressing Gluc were treated in a 96-well plate with either fludarabine or gemcitabine—classical RNR inhibitors—and cell viability was assessed by the Gluc assay. […] The RBP-Jk-Fluc reporter plasmid which carries RBP-Jk transcriptional response element driving the expression of Fluc34 was used. RBP-Jk is a DNA binding transcription factor and a direct downstream modulator of Notch signalling. Thus, this reporter can indirectly monitor Notch activity (Minoguchi, S., et al., Mol Cell Biol 1997, 17, 2679-2687). 293T cells were transfected with this plasmid, treated with 30 μM HU, and monitored Fluc activity 3 days later.

U87R1 tumors = assay: Intracranial U87R1-Fluc (TMZ-resistant) tumor model, Fluc imaging and survival; details: 5 mg/kg TMZ i.p., 50 mg/kg HU i.p., start one week post-implantation
Protocol: U87R1 cells (20,000 cells/mouse) expressing Fluc were implanted in the brain of nude mice. One week later, mice were divided in four groups (n=10-20/group) and treated with 1). DMSO vehicle as control, 2). 50 mg/kg HU, 3). 5 mg/kg TMZ or 4). 5 mg/kg TMZ+50 mg/kg HU. In FIG. 2E, tumor growth was monitored over time by Fluc imaging. […] In FIG. 2F, survival was recorded to generate the Kaplan-Meier plot.
200,000 U87R1 cells expressing Fluc were implanted in the brain of nude mice. Two weeks later, mice were divided in two groups (n=10/group) and treated with either TMZ or TMZ+HU. Survival was recorded.
U87R1 cells expressing Fluc were implanted in the brain of nude mice. One week later, mice were divided in four groups (n=10-20/group) and treated with either DMSO vehicle, radiation (R; 3 Gy), HU, TMZ or R+TMZ+HU. Tumor growth was monitored over time by Fluc imaging and survival was recorded to generate the Kaplan-Meier plot.
U87 or U87R1 cells were first transduced with a lentivirus vector to stably express firefly luciferase (Fluc), a reporter which can be used to track tumor growth in vivo (Wurdinger, T., et al., Nat Methods 2008, 5, 171-173). Fifty thousands of these cells were intracranially injected in the brain of nude mice as previously described. One week post-tumor implantation, mice were randomized into four different groups receiving: (1) DMSO vehicle control; (2) intraperitoneal (i.p) injection of 5 mg/kg TMZ; (3) 50 mg/kg HU i.p.; (4) combination of TMZ+HU. Tumor growth was monitored over time by in vivo Fluc bioluminescence imaging using a cooled CCD camera (Wurdinger, T., et al., Nat Methods 2008, 5, 171-173). […]
GBM cells were first transduced with a lentivirus vector to stably express Fluc. […] Tumor growth was monitored over time by in vivo Fluc bioluminescence imaging after i.p. injection of 200 mg/kg D-luciferin substrate and acquiring signal using a cooled CCD camera (Wurdinger, T., et al., Nat Methods 2008, 5, 171-173).

melanoma cells = assay: Sensitization of melanoma cells to TMZ; format: cell-based; details: FIG. 7
malignant gliomas = details: in combination with radiation or cytotoxic chemotherapy, not TMZ; cited from earlier work
U87 tumors = assay: Intracranial U87-Fluc tumor model, Fluc imaging and survival; details: 5 mg/kg TMZ i.p., 50 mg/kg HU i.p., start one week post-implantation
Protocol: U87 cells (20,000 cells/mouse) expressing Fluc were implanted in the brain of nude mice. One week later, mice were divided in four groups (n=10-20/group) and treated with 1). DMSO vehicle as control, 2). 50 mg/kg HU, 3). 1 mg/kg TMZ or 4). 1 mg/kg TMZ+50 mg/kg HU. In FIG. 2A, tumor growth was monitored over time by Fluc imaging. X-axis, days after treatment starts. In FIG. 2B, survival was recorded to generate the Kaplan-Meier plot. X-axis, days after treatment starts.
U87 cells (20,000 cells/mouse) expressing Fluc were implanted in the brain of nude mice. One week later, mice were divided in four groups (n=10-20/group) and treated with 1). DMSO vehicle as control, 2). 50 mg/kg HU, 3). 5 mg/kg TMZ or 4). 5 mg/kg TMZ+50 mg/kg HU. In FIG. 2C, tumor growth was monitored over time by Fluc imaging. X-axis, days after treatment starts. In FIG. 2D, survival was recorded to generate the Kaplan-Meier plot. X-axis, days after treatment starts.
U87 or U87R1 cells were first transduced with a lentivirus vector to stably express firefly luciferase (Fluc), a reporter which can be used to track tumor growth in vivo (Wurdinger, T., et al., Nat Methods 2008, 5, 171-173). Fifty thousands of these cells were intracranially injected in the brain of nude mice as previously described. One week post-tumor implantation, mice were randomized into four different groups receiving: (1) DMSO vehicle control; (2) intraperitoneal (i.p) injection of 5 mg/kg TMZ; (3) 50 mg/kg HU i.p.; (4) combination of TMZ+HU. Tumor growth was monitored over time by in vivo Fluc bioluminescence imaging using a cooled CCD camera (Wurdinger, T., et al., Nat Methods 2008, 5, 171-173).
GBM cells were first transduced with a lentivirus vector to stably express Fluc. Fifty thousands of these cells were intracranially injected in the brain of nude mice using the following coordinates from the bregma in mm: anterior-posterior +0.5 mm, medio-lateral +2.0 mm, dorso-ventral −2.5 mm. One week after implantation of 50,000 (low amount) or 200,000 (high amount) GBM cells, or 100 GBM spheres, mice were randomized into different treatment groups. Tumor growth was monitored over time by in vivo Fluc bioluminescence imaging after i.p. injection of 200 mg/kg D-luciferin substrate and acquiring signal using a cooled CCD camera (Wurdinger, T., et al., Nat Methods 2008, 5, 171-173).

[1] = for certain chemotherapeutics; cited from earlier work
[2] = format: in vivo; details: mice treated four consecutive days; HU 30 mg/kg, TMZ 30 mg/kg
Protocol: Primary GBM8 cells24 (from newly diagnosed tumor with methylated MGMT (Wakimoto, H., et al., Neuro Oncol 2012, 14, 132-144)) were grown in stem cell media as neural spheres. […] Upon intracranial injection, these cells formed tumors and infiltrated the brain of nude mice similar to human tumors (FIGS. 4A-4C). This model was used to test the efficacy of HU in combination with TMZ. Four weeks after implantation of 100,000 GBM8 cells, when tumors started to rapidly grow (as observed by Fluc imaging), mice were divided into two groups (n=20/group) which received DMSO vehicle or i.p. injection of 30 mg/kg TMZ four days/week over two weeks. […] Mice were then left off TMZ to allow for GBM tumors to recur potentially becoming resistant to TMZ, recapitulating the patient scenario. […] Next, the toxicity of this combined therapy was assessed by treating mice with either DMSO, TMZ, HU, or HU+TMZ for four consecutive days and analyzing the blood for white blood cells (WBC), hematocrit (HCT), mean corpuscular volume (MCV), red cell distribution width (RDW), hemoglobin (HGB), mean corpuscular hemoglobin (MCH), red blood cells (RBC), platelets (PLT), and mean platelet volume (MPV). […] Hematotoxicity on bone marrow was also evaluated by preparing bone marrow smears and counting viable cells from untreated and TMZ/HU-treated naïve mice as above.

[3] = tested on: U87R1, U87R2, SNZ308R1, SNZ308R2, HS683R1 and HS683R2 TMZ-resistant cells; assay: Gluc cell viability assay, TMZ-resistant glioma subclones; format: cell-based
Protocol: (§2) FIG. 1A is a set of graphs showing the effects of TMZ on tumor cells. U87, SNZ308, HS683 parental cells (P) and resistant clones (Res) were treated with different amounts of TMZ. After four days aliquots of conditioned medium were assayed for Gluc activity using 50 μl 2 μg/ml coelenterazine.
FIG. 1B is a set of graphs showing the effects of TMZ+HU on tumor cells. U87 and resistant clones R1/R2 were treated with TMZ and/or 100 μM HU. Cell viability was assessed by the Gluc assay.
The inventors previously generated two independent TMZ-resistant subclones from three different glioma cell lines (U87, SNZ308 and HS683) by long-term exposure (two times per week over seven weeks) to 100 μM TMZ, generating U87R1, U87R2, SNZ308R1, SNZ308R2, HS683R1 and HS683R2. These cells together with their parental counterparts were first engineered by lentivirus vector transduction to stably express the naturally secreted Gaussia luciferase (Gluc) as a reporter for cell viability. […] In this case, cell viability can be monitored over time by assaying aliquots of conditioned medium from these cells for Gluc activity. […] Using the U87R1 and U87R2 TMZ-resistant cells and the Gluc high-throughput screening assay (Badr, C. E., et al., Assay Drug Dev Technol, 2011 9, 281-289), a small library of 100 known anti-cancer agents was screened in the presence and absence of 100 μM TMZ. […]

GBM = details: cited from earlier work
[4] = tested on: U87, SNZ308, HS683 parental cells; assay: Gluc cell viability assay, parental glioma cell lines; format: cell-based; details: different amounts of TMZ, four days
Protocol: as §2
The inventors previously generated two independent TMZ-resistant subclones from three different glioma cell lines (U87, SNZ308 and HS683) by long-term exposure (two times per week over seven weeks) to 100 μM TMZ, generating U87R1, U87R2, SNZ308R1, SNZ308R2, HS683R1 and HS683R2. These cells together with their parental counterparts were first engineered by lentivirus vector transduction to stably express the naturally secreted Gaussia luciferase (Gluc) as a reporter for cell viability. […] In this case, cell viability can be monitored over time by assaying aliquots of conditioned medium from these cells for Gluc activity. […] Using the U87R1 and U87R2 TMZ-resistant cells and the Gluc high-throughput screening assay (Badr, C. E., et al., Assay Drug Dev Technol, 2011 9, 281-289), a small library of 100 known anti-cancer agents was screened in the presence and absence of 100 μM TMZ. […] The same results were obtained when HU was used in combination with TMZ on SNZ308 and HS683 resistant lines (data not shown).

[5] = tested on: GBM8 tumors carrying methylated MGMT promoter; assay: Intracranial primary GBM8-Fluc-mCherry tumor model; format: in vivo, nude mice
Protocol: FIG. 4A is an image showing that 10^5 GBM8 cells expressing Fluc and mCherry were stereotactically injected into the left midstriatum of nude mice brain.
FIG. 4D is a set of images showing the in vivo effects of TMZ+HU treatments on mice. Mice-bearing GBM8-Fluc-mCherry tumors were treated with TMZ or vehicle for two weeks, then left off TMZ for three weeks. TMZ-treated group was then divided into four subgroups which received vehicle, HU, TMZ, or HU+TMZ.
Primary GBM8 cells24 (from newly diagnosed tumor with methylated MGMT (Wakimoto, H., et al., Neuro Oncol 2012, 14, 132-144)) were grown in stem cell media as neural spheres. […] Upon intracranial injection, these cells formed tumors and infiltrated the brain of nude mice similar to human tumors (FIGS. 4A-4C). This model was used to test the efficacy of HU in combination with TMZ. Four weeks after implantation of 100,000 GBM8 cells, when tumors started to rapidly grow (as observed by Fluc imaging), mice were divided into two groups (n=20/group) which received DMSO vehicle or i.p. injection of 30 mg/kg TMZ four days/week over two weeks. […] Mice were then left off TMZ to allow for GBM tumors to recur potentially becoming resistant to TMZ, recapitulating the patient scenario. At this point, the TMZ group was divided into four subgroups (n=10/group) which received either DMSO, HU (50 mg/kg), TMZ (30 mg/kg) or HU+TMZ four days/week over three weeks. […] Next, the toxicity of this combined therapy was assessed by treating mice with either DMSO, TMZ, HU, or HU+TMZ for four consecutive days and analyzing the blood for white blood cells (WBC), hematocrit (HCT), mean corpuscular volume (MCV), red cell distribution width (RDW), hemoglobin (HGB), mean corpuscular hemoglobin (MCH), red blood cells (RBC), platelets (PLT), and mean platelet volume (MPV). No significant difference between different treated groups in comparison to DMSO control was found (Table 1). Hematotoxicity on bone marrow was also evaluated by preparing bone marrow smears and counting viable cells from untreated and TMZ/HU-treated naïve mice as above.

[6] = tested on: TMZ-resistant primary glioma rpGBMa cells; assay: Gluc cell viability assay, recurrent GBM cells with RNR inhibitors and TMZ; format: cell-based; details: GBM cells from recurrent tumors, four days
Protocol: FIG. 5A is a plot showing that glioma cells are sensitized to TMZ by ribonucleotide reductase inhibition. 3×10^3 TMZ-resistant primary glioma rpGBMa cells expressing Gluc were treated with […] of ribonucleotide reductase (RNR) inhibitor Fludarabine or Gemcitabine, in the presence or absence of 100 μM TMZ. After four days aliquots of conditioned medium were assayed for Gluc activity using 50 μl 2 μg/ml coelenterazine. Data presented as the mean Gluc RLU/mL +/−SD (n=8; **p<0.01 vs. no TMZ treatment by two-way ANOVA).
as §1, with “RBP-Jk is a DNA binding transcription factor and a direct downstream modulator of Notch signalling. Thus, this reporter can indirectly monitor Notch activity (Minoguchi, S., et al., Mol Cell Biol 1997, 17, 2679-2687).” left out

[7] = second round, HU 50 mg/kg, TMZ 30 mg/kg, four days/week over three weeks

Compound: C[C@H](NC(=O)Cc1cc(F)cc(F)c1)C(=O)N[C@H](C(=O)OC(C)(C)C)c1ccccc1 [DAPT]
- change of Fluc activity (Notch signalling; γ-secretase inhibition): decrease of Fluc activity similar to HU

Compound: NC(=O)NO [HU, hydroxyurea]
- mice survival (U87R1 tumors): no significant effect
- tumor growth (Fluc bioluminescence imaging) (U87R1 tumors): no significant effect
- sensitization of melanoma cells to TMZ (melanoma cells): sensitizes melanoma cells to TMZ
- decrease in Fluc activity (Notch signalling; 30 μM HU, 3 days): 50%
- efficacy in malignant gliomas (malignant gliomas): limited efficacy
- mice survival (U87 tumors): no significant effect
- tumor growth (Fluc bioluminescence imaging) (U87 tumors): no significant effect
- effect on blood brain tumor permeability [1]: increases the blood brain tumor permeability of certain chemotherapeutics
- MPV [2]: 6.3 ± 0.4
- sensitization of resistant cells to TMZ ([3]; U87R1 and U87R2, 100 μM HU, TMZ): sensitize both resistance cell lines to TMZ

Compound: Cn1nnc2c(C(N)=O)ncn2c1=O [TMZ, 4-methyl-5-oxo-2,3,4,6,8-pentazabicyclo[4.3.0]nona-2,7,9-triene-9-carboxamide]
- tumor growth (Fluc bioluminescence imaging) (U87R1 tumors): not on U87R1 tumors
- median survival (GBM; TMZ added to standard of care including surgery and radiation, 12.1 months without): 14.6 months
- patients who die after 5 years (GBM; patients receiving both TMZ and radiation): 90%
- overall 2 years survival (GBM; randomized phase III, combined therapy, 10.9% without): 27.2%
- mice survival (U87 tumors): moderate effect
- tumor growth (Fluc bioluminescence imaging) (U87 tumors): moderate effect
- cell viability (Gluc activity) on exposure to TMZ [4]: sensitive to TMZ in a dose-dependent fashion
- tumor response, first round of treatment ([5]; 30 mg/kg TMZ i.p. four days/week over two weeks, start four weeks after implantation): responded very well
- survival rate, recurred tumors after TMZ break [5, 7]: not a significant increase
- tumor volume / tumor growth, recurred tumors after TMZ break [5, 7]: moderate effect
- MPV [2]: 6.5 ± 0.4
- cell viability (Gluc activity) on exposure to TMZ ([3]; resistant cell lines, up to 100 μM TMZ): no significant effect
- cell viability (Gluc assay), TMZ alone ([6]; 100 μM TMZ): moderate-to-no effect

Compound: Nc1ccn([C@@H]2O[C@H](CO)[C@@H](O)C2(F)F)c(=O)n1 [gemcitabine, 4-amino-1-(2-deoxy-2,2-difluoro-β-D-erythro-pentofuranosyl)pyrimidin-2(1H)-on]
- sensitization of GBM cells to TMZ ([6]; RNR inhibitor in presence or absence of 100 μM TMZ): sensitized GBM cells to TMZ
